Experimental data as given in PubChem BioAssay AID248 (DTP/NCI, 2004).
“And” between values parts separate entries of the source, which are not always exact repeats. Equal values may be shown once. Toxic doses and inconclusive results are not listed. Rule as the data show it: active = T/C of 150% or more; inactive = T/C below 125%.

Tested on: L1210 leukemia ip in BDF1 mice, survival T/C
Test: NCI In Vivo Anticancer Drug Screen. Data for tumor model L1210 Leukemia (intraperitoneal) in B6D2F1 (BDF1) mice
Conditions: endpoint: mean survival time, higher = longer survival
Summary of the method: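 Tumor cells were implanted, animals were treated, and survival was followed. The result divides the treated measurement by the vehicle-control measurement.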

[1] = dose: 75.0 mg/kg/injection, schedule: Q01DX001 (ip), vehicle: saline
[2] = dose: 150.0 mg/kg/injection, schedule: Q01DX001 (ip), vehicle: saline
[3] = dose: 100.0 mg/kg/injection, schedule: Q01DX009 (ip), vehicle: Klucel (hydroxypropylcellulose) (HPC)
[4] = dose: 100.0 mg/kg/injection, schedule: Q04DX002 (ip), vehicle: Klucel (hydroxypropylcellulose) (HPC)
[5] = dose: 200.0 mg/kg/injection, schedule: Q01DX009 (ip), vehicle: Klucel (hydroxypropylcellulose) (HPC)
[6] = dose: 200.0 mg/kg/injection, schedule: Q04DX002 (ip), vehicle: Klucel (hydroxypropylcellulose) (HPC)
[7] = dose: 400.0 mg/kg/injection, schedule: Q01DX009 (ip), vehicle: Klucel (hydroxypropylcellulose) (HPC)
[8] = dose: 400.0 mg/kg/injection, schedule: Q04DX002 (ip), vehicle: Klucel (hydroxypropylcellulose) (HPC)
[9] = dose: 100.0 mg/kg/injection, schedule: Q01DX001 (ip), vehicle: carboxymethylcellulose (CMC)
[10] = dose: 200.0 mg/kg/injection, schedule: Q01DX001 (ip), vehicle: carboxymethylcellulose (CMC)
[11] = dose: 400.0 mg/kg/injection, schedule: Q01DX001 (ip), vehicle: carboxymethylcellulose (CMC)
[12] = dose: 100.0 mg/kg/injection, schedule: Q04DX002 (ip), vehicle: saline with Tween-80
[13] = dose: 200.0 mg/kg/injection, schedule: Q04DX002 (ip), vehicle: saline with Tween-80
[14] = dose: 400.0 mg/kg/injection, schedule: Q04DX002 (ip), vehicle: saline with Tween-80
[15] = dose: 100.0 mg/kg/injection, schedule: Q04DX003 (ip), vehicle: saline with Tween-80
[16] = dose: 100.0 mg/kg/injection, schedule: Q04DX003 (ip), vehicle: Klucel (hydroxypropylcellulose) (HPC)
[17] = dose: 200.0 mg/kg/injection, schedule: Q04DX003 (ip), vehicle: Klucel (hydroxypropylcellulose) (HPC)
[18] = dose: 400.0 mg/kg/injection, schedule: Q04DX003 (ip), vehicle: Klucel (hydroxypropylcellulose) (HPC)

Measured: T/C

COc1ccc([N+](=O)[O-])cc1C(=O)O
inactive: [1] 104 % of control | dose: 75.0 mg/kg/injection, schedule: Q04DX003 (ip), vehicle: acetone 100 % of control | [2] 95 % of control | dose: 150.0 mg/kg/injection, schedule: Q04DX003 (ip), vehicle: acetone 89 % of control | dose: 300.0 mg/kg/injection, schedule: Q01DX001 (ip), vehicle: saline 104 % of control | dose: 300.0 mg/kg/injection, schedule: Q04DX003 (ip), vehicle: acetone 93 % of control

CC12CCC(O1)C1C[N+](C)(CCC#N)CC12 (stereo not given)
inactive: dose: 55.0 mg/kg/injection, schedule: Q01DX Z (ip), vehicle: saline 105 % of control | dose: 83.0 mg/kg/injection, schedule: Q01DX Z (ip), vehicle: saline 100 % of control | dose: 125.0 mg/kg/injection, schedule: Q01DX Z (ip), vehicle: saline 105 % of control

NC1(C(=O)O)CCCC2CCCCC21 (stereo not given)
inactive: [3] 100 % of control | [4] 93 % of control | [5] 96 % of control | [6] 93 % of control | [7] 91 % of control | [8] 96 % of control

S=C(NCc1ccccc1)Nc1ncn[nH]1
inactive: dose: 25.0 mg/kg/injection, schedule: Q01DX009 (ip), vehicle: saline 100 % of control | dose: 25.0 mg/kg/injection, schedule: Q04DX003 (ip), vehicle: saline 92 % of control | dose: 50.0 mg/kg/injection, schedule: Q01DX009 (ip), vehicle: saline 94 % of control | dose: 50.0 mg/kg/injection, schedule: Q04DX003 (ip), vehicle: saline 92 % of control | dose: 100.0 mg/kg/injection, schedule: Q01DX009 (ip), vehicle: saline 90 % of control | dose: 100.0 mg/kg/injection, schedule: Q04DX003 (ip), vehicle: saline 92 % of control

N=c1nc(N)c([N+](=O)[O-])c(N)n1O
inactive: [9] 100 % of control | [10] 97 % of control | [11] 100 % of control

O=C(O)c1ccc2c(c1)C(=O)c1cc([N+](=O)[O-])ccc1-2
inactive: [9] 102 % of control | [10] 102 % of control

O=C(c1ccccc1)C(O)(CCP(=O)(c1ccccc1)c1ccccc1)c1ccccc1 (stereo not given)
inactive: dose: 75.0 mg/kg/injection, schedule: Q01DX001 (ip), vehicle: carboxymethylcellulose (CMC) 88 % of control | dose: 150.0 mg/kg/injection, schedule: Q01DX001 (ip), vehicle: carboxymethylcellulose (CMC) 96 % of control

CC(=O)OCCCC[N+](=O)[O-]
inactive: [9] 98 % of control | [10] 98 % of control | [11] 98 % of control

CCC1(O)C(=O)OCc2c1cc(-c1ccccc1)n(C)c2=O (stereo not given)
inactive: dose: 25.0 mg/kg/injection, schedule: Q01DX001 (ip), vehicle: other 101 % of control | dose: 50.0 mg/kg/injection, schedule: Q01DX001 (ip), vehicle: other 113 % of control | dose: 100.0 mg/kg/injection, schedule: Q01DX001 (ip), vehicle: other 101 % of control | dose: 200.0 mg/kg/injection, schedule: Q01DX001 (ip), vehicle: other 98 % of control

C=C(N1CCCCC1)N1CCCCC1
inactive: [12] 100 % of control | [13] 96 % of control | [14] 116 % of control

O=C(COc1ccccc1[N+](=O)[O-])Nc1ccccc1C(=O)O
inactive: dose: 100.0 mg/kg/injection, schedule: Q01DX001 (ip), vehicle: saline with Tween-80 92 % of control | dose: 200.0 mg/kg/injection, schedule: Q01DX001 (ip), vehicle: saline with Tween-80 92 % of control

O=[N+]([O-])c1ccccc1-c1ccccc1[N+](=O)[O-]
inactive: [12] 97 % of control | [13] 90 % of control | [14] 87 % of control

CCOC(=O)c1ccc2ccccc2n1
inactive: [1] 109 % of control | [2] 96 % of control

CC1(c2ccc3ccccc3c2)OCC2(CCCCC2)CO1
inactive: dose: 50.0 mg/kg/injection, schedule: Q04DX002 (ip), vehicle: Klucel (hydroxypropylcellulose) (HPC) 93 % of control | [4] 100 % of control | [6] 100 % of control | [8] 96 % of control and 97 % of control

Nc1ncnc2nc(-c3ccc(OCCCOc4ccccc4)c(Cl)c3)[nH]c12
inactive: dose: 6.25 mg/kg/injection, schedule: Q01DX001 (ip), vehicle: saline with Tween-80 94 % of control | dose: 12.5 mg/kg/injection, schedule: Q01DX001 (ip), vehicle: saline with Tween-80 89 % of control | dose: 50.0 mg/kg/injection, schedule: Q01DX001 (ip), vehicle: saline with Tween-80 88 % of control

CCCN(CCC)c1ccc(N=Nc2cc(Cl)ccc2Cl)cc1
inactive: [15] 91 % of control | dose: 200.0 mg/kg/injection, schedule: Q04DX003 (ip), vehicle: saline with Tween-80 93 % of control | dose: 400.0 mg/kg/injection, schedule: Q04DX003 (ip), vehicle: saline with Tween-80 91 % of control

COc1ccccc1N1CCN(CC(O)COc2ccccc2C(C)=O)CC1 (stereo not given)
inactive: dose: 25.0 mg/kg/injection, schedule: Q01DX009 (ip), vehicle: saline with Tween-80 107 % of control | dose: 50.0 mg/kg/injection, schedule: Q01DX009 (ip), vehicle: saline with Tween-80 105 % of control | dose: 100.0 mg/kg/injection, schedule: Q01DX009 (ip), vehicle: saline with Tween-80 109 % of control | [15] 96 % of control

CC(C)(C)CC(C)(C)c1ccc(OCCOc2ccc([N+](=O)[O-])cc2N)cc1
inactive: [3] 97 % of control | [16] 98 % of control | [5] 97 % of control | [17] 93 % of control | [7] 101 % of control | [18] 86 % of control

OC(c1ccccc1)C(c1ccccc1)C1CO1 (stereo not given)
inactive: dose: 12.5 mg/kg/injection, schedule: Q01DX009 (ip), vehicle: DMSO 88 % of control | dose: 25.0 mg/kg/injection, schedule: Q01DX009 (ip), vehicle: DMSO 91 % of control | dose: 100.0 mg/kg/injection, schedule: Q04DX003 (ip), vehicle: other 103 % of control | dose: 200.0 mg/kg/injection, schedule: Q04DX003 (ip), vehicle: other 103 % of control | dose: 400.0 mg/kg/injection, schedule: Q04DX003 (ip), vehicle: other 94 % of control

Oc1ccc(C(=S)N2CCOCC2)cc1
inactive: [16] 97 % of control | [17] 97 % of control | [18] 98 % of control

CN(C)CCN(CC(=O)O)CC(=O)O
inactive: dose: 100.0 mg/kg/injection, schedule: Q01DX001 (ip), vehicle: saline 100 % of control | dose: 200.0 mg/kg/injection, schedule: Q01DX001 (ip), vehicle: saline 102 % of control | dose: 400.0 mg/kg/injection, schedule: Q01DX001 (ip), vehicle: saline 100 % of control

N=c1ncn(C2OC(CO[P+](N)(O)O)C(O)C2O)c2nc[nH]c12 (stereo not given)
inactive: dose: 12.5 mg/kg/injection, schedule: Q01DX005 (ip), vehicle: water 110 % of control | dose: 25.0 mg/kg/injection, schedule: Q01DX005 (ip), vehicle: water 106 % of control

Clc1cc2c(cc1CO/N=C\c1ccc3c(c1)OCO3)OCO2
inactive: dose: 100.0 mg/kg/injection, schedule: Q04DX003 (ip), vehicle: saline sonified 90 % of control | dose: 200.0 mg/kg/injection, schedule: Q04DX003 (ip), vehicle: saline sonified 88 % of control
